Measured values reported in paper PMC3164776 (Biochemistry, 2010).
Where “and” joins values, the source holds several entries; their conditions need not be identical. Equal entries are not always repeated. Where two headings read alike, the source gives them in different places.

Assays:
[1] = test system: KB-V1 cells; settings: for effect on MDR phenotype: cytotoxicity of paclitaxel and vinblastine, Supplemental Information 2; for change of LD50 / resistance in presence of 5-CHInd: 10 μM 5-CHInd over 72 hours, Figure 4A
[2] = molecular target: T1, P-gp (Homo sapiens, UniProt P08183); assay: P-gp ATPase assay, hydrolysis of [γ-32P]-ATP by P-gp membranes; format: biochemical
T1 sequence (P08183 whole entry): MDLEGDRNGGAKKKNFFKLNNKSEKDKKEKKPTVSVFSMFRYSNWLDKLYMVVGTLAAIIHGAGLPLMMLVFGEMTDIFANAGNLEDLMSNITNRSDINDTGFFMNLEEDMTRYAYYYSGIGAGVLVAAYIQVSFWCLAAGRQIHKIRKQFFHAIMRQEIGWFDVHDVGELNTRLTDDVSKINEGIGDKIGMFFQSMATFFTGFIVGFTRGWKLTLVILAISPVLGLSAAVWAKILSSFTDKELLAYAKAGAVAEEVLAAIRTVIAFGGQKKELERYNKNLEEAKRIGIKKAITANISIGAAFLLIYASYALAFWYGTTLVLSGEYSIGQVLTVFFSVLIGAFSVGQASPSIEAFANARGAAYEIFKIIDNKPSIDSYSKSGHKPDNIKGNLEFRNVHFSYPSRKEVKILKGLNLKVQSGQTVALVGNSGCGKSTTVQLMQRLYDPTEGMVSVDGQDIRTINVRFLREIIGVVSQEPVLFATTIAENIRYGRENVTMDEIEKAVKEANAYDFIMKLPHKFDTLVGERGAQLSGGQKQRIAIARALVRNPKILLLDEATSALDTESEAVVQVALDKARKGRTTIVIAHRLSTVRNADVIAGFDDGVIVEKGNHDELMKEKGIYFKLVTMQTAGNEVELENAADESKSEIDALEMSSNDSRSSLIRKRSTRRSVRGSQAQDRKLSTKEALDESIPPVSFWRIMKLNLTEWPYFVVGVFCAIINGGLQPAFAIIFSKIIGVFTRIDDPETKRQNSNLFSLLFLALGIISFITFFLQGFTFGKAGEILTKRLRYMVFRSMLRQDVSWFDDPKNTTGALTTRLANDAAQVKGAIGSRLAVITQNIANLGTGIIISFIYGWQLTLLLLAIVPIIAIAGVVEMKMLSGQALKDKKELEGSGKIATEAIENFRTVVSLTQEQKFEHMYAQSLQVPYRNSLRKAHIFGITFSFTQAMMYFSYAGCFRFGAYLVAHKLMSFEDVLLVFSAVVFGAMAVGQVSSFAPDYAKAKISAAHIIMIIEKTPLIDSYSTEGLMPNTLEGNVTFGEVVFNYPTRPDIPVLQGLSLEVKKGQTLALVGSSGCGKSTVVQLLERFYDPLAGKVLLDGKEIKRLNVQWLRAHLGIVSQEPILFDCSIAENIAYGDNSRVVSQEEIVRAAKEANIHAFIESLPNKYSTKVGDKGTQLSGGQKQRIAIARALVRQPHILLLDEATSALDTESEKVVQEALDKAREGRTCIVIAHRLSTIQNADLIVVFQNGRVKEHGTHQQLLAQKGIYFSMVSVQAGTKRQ

[3] = molecular target: P-gp (MDCK-MDR1 monolayers) (Homo sapiens, UniProt P08183); assay: Monolayer efflux experiment, MDCK-MDR1 monolayers
Chain of P-gp (MDCK-MDR1 monolayers) (P08183 whole entry): as above

[4] = test system: KB3-1 cells; assay: MTT cytotoxicity assay in KB3-1 cells; format: cell-based
[5] = test system: MDCK monolayers; assay: Monolayer efflux experiment, MDCK monolayers; settings: substance alone (10 μM 5-CHInd, 3 μM rhodamine 123, 4 μM calcein-AM)
[6] = molecular target: T1, P-gp; assay: PDSP cell-based screen: accumulation of calcein-AM in Caco-2 cells; settings: analogs of the screened nucleoside library
[7] = molecular target: P-gp (MDR1) (Homo sapiens, UniProt P08183); assay: Monolayer efflux experiment, MDCK-MDR1 monolayers; settings: dog
Chain of P-gp (MDR1) (P08183 whole entry): as above

[8] = Monolayer efflux experiment, MDCK monolayers; settings: dog
[9] = substance alone (10 μM 5-CHInd, 3 μM rhodamine 123, 4 μM calcein-AM), mean ± SEM

Q: Which “effect on MDR phenotype” value ([1]; KB-V1) does the source give for `OC[C@H]1O[C@@H](n2ccc3cc(C4=CCCCC4)ccc32)C[C@@H]1O` [5-CEInd, 5-cyclohexene indolyl 2′-deoxyribose] here?
A: no significant effects on MDR phenotype

Q: Which Ki [2] does the source give for `OC[C@H]1O[C@@H](n2ccc3cc(C4CCCCC4)ccc32)C[C@@H]1O` [5-CHInd, 5-cyclohexyl indolyl 2′-deoxyribose] here?
A: 6.5 nM

Q: And the Km [2]?
A: 0.06 ± 0.01 µM

Q: What about the Vmax [2] of the same compound?
A: 16 ± 0.2 nmol Pi/min/mg protein

Q: And the “fold by which Ki is lower than Km” value ([2]; Ki vs Km value of 60 nM)?
A: ~ 9 fold

Q: What about the “BL→AP/AP→BL (Peff ratio)” value [3, 9] of the same compound?
A: 11.1 and 11.1 ± 2.5

Q: And the maximal non-toxic dose ([1]; 48 hour period)?
A: 50 µM

Q: What about the maximal non-toxic dose ([1]; 72 hour period) of the same compound?
A: 10 µM

Q: And the LD50 ([1]; KB-V1 (MDR positive), 72 hours post-treatment, MTT)?
A: 44 ± 5 µM

Q: And the “concentration at which cytotoxic” value ([1]; MTT assay)?
A: greater than 50 μM

Q: And the LD50 ([4]; KB3-1 MDR −/−, 72 hours post-treatment, MTT)?
A: 45 ± 3 µM

Q: And the “BL→AP/AP→BL (Peff ratio)” value [5]?
A: 8.7 ± 1.3

Q: For `O=[N+]([O-])c1ccc2c(ccn2C2CC(O)C(CO)O2)c1` (stereo not shown) [5-NInd], which “interaction with P-gp” value [6] is on record?
A: do not interact with P-gp

Q: Which “effect on MDR phenotype” value ([1]; KB-V1) does the source give for `OC[C@H]1O[C@@H](n2ccc3cc(-c4ccccc4)ccc32)C[C@@H]1O` [5-PhInd, 5-phenyl indolyl 2′-deoxyribose] here?
A: no significant effects on MDR phenotype

Q: For `COc1cc2c(c(OC)c1OC)-c1ccc(OC)c(=O)cc1[C@@H](NC(C)=O)CC2` [Colchicine, reference compound], which Km [2] is on record?
A: 37 ± 8 µM

Q: What about the “change of LD50 / resistance in presence of 5-CHInd” value (“change of LD50 / resistance” for short) ([1]; KB-V1) of the same compound?
A: did not influence the LD50 values

Q: With `COc1cccc2c1C(=O)c1c(O)c3c(c(O)c1C2=O)C[C@@](O)(C(=O)CO)C[C@@H]3O[C@H]1C[C@H](N)[C@H](O)[C@H](C)O1` [Doxorubicin, reference compound] as the compound, how does the “change of LD50 / resistance” value ([1]; KB-V1) read?
A: cells become more resistant

Q: Which “change of LD50 / resistance” value ([1]; KB-V1) does the source give for `CC(=O)O[C@H]1C(=O)[C@@]2(C)[C@H]([C@H](OC(=O)c3ccccc3)[C@]3(O)C[C@H](OC(=O)[C@H](O)[C@@H](NC(=O)c4ccccc4)c4ccccc4)C(C)=C1C3(C)C)[C@]1(OC(C)=O)CO[C@@H]1C[C@@H]2O` [Paclitaxel, reference compound] here?
A: decreases

Q: What about the LD50 ([1]; KB-V1, 48 hours, in presence of 50 μM 5-CHInd) of the same compound?
A: 0.49 ± 0.03 µM

Q: And the LD50 ([1]; KB-V1, 48 hours, no treatment with 5-CHInd)?
A: 4.0 ± 0.24 µM

Q: And the “potentiating effect of 5-CHInd” value ([4]; KB3-1, does not overexpress P-gp, Supplemental Information 1)?
A: not observed

Q: What does the source list for `COC(=O)c1ccccc1-c1c2ccc(=N)cc-2oc2cc(N)ccc12` [Rhodamine 123]?
A: efflux ratio at 60 min, 3 μM [7]: 72.7 ± 15.3; BL→AP/AP→BL (Peff ratio) [3, 9]: 72.7; efflux ratio at 60 min, 3 μM [8]: 1.2 ± 0.2

Q: For `CC[C@]1(O)C[C@@H]2CN(CCc3c([nH]c4ccccc34)[C@@](C(=O)OC)(c3cc4c(cc3OC)N(C)[C@H]3[C@@](O)(C(=O)OC)[C@H](OC(C)=O)[C@]5(CC)C=CCN6CC[C@]43[C@@H]65)C2)C1` [Vinblastine, reference compound], which “change of LD50 / resistance” value ([1]; KB-V1) is on record?
A: cells become more resistant

Q: What does the source list for Calcein-AM?
A: BL→AP/AP→BL (Peff ratio) ([3]; 4 μM calcein-AM + 10 μM 5-CHInd): ~ 1; BL→AP/AP→BL (Peff ratio) [3, 9]: 2940 ± 120; BL→AP/AP→BL (Peff ratio) [5]: 2.6 ± 0.3
